The structures appear in SMILES notation.

The values below come from publication PMC9475448, “What a difference a methylene makes: replacing Glu with Asp or Aad in the Lys-urea-Glu pharmacophore of PSMA-targeting radioligands to reduce kidney and salivary gland uptake” (Theranostics, 2022).

One experiment relates to LNCaP tumor-bearing mice. The experiment can be described thus: Radioligand therapy study in LNCaP tumor-bearing NRG mice. As to conditions: 500 pmol nonradioactive.
In another experiment the target is T1, PSMA (Homo sapiens, UniProt Q04609).
T1 construct: endogenous in cells; host or cells: LNCaP prostate cancer cells
The experiment can be described thus: In vitro competition binding assay using LNCaP cells and [18F]DCFPyL as radioligand. As to conditions: displacement of [18F]DCFPyL from LNCaP cells, n = 3; read-out: PSMA binding affinity (Ki). The method, then:
The binding assays were conducted following previously published procedures using LNCaP cells and [^18F]DCFPyL as the radioligand [17]-[19]. Briefly, LNCaP cells (400,000/well) were plated onto a 24-well poly-D-lysine coated plate for 48 h. Growth media was removed and replaced with HEPES buffered saline (50 mM HEPES, pH 7.5, 0.9% sodium chloride) and the cells were incubated for 1 h at 37 °C. [^18F]DCFPyL (0.1 nM) was added to each well (in triplicate) containing various concentrations (0.5 mM - 0.05 nM) of tested nonradioactive Ga-complexed compounds. Non-specific binding was determined in the presence of 10 µM non-radiolabeled DCFPyL. The assay mixtures were further incubated for 1 h at 37 °C with gentle agitation. Then, the buffer and radioligand were removed, and cells were washed twice with cold HEPES buffered saline. To harvest the cells, 400 µL of 0.25 % trypsin solution was added to each well. Radioactivity was measured on a PerkinElmer (Waltham, MA) Wizard2 2480 automatic gamma counter. Data analyses of Ki were performed using the nonlinear regression algorithm of GraphPad (San Diego, CA) Prism 7 software.

T1 sequence (Q04609 whole entry): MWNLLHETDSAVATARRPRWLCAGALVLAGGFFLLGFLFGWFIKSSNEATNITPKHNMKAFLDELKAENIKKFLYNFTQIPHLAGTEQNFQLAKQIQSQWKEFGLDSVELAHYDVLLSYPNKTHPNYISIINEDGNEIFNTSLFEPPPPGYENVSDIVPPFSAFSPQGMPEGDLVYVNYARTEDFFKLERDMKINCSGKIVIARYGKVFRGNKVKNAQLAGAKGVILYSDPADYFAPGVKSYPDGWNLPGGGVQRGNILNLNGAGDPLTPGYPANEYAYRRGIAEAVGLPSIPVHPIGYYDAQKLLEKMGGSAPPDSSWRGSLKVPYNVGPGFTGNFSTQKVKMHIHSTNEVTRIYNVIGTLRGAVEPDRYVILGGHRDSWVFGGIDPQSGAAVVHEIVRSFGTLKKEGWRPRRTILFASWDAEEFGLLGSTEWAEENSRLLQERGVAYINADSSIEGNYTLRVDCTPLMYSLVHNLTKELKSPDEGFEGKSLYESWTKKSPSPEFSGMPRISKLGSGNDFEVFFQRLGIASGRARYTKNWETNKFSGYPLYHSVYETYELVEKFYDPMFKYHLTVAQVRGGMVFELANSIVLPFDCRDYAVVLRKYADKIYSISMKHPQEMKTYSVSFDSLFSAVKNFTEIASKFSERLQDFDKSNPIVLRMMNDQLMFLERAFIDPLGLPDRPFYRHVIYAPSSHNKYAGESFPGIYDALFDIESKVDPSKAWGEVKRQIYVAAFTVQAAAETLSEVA

In the case of `O=C([O-])CN1CCN(CC(=O)[O-])CCN(CC(=O)NCC2CCC(C(=O)NC(Cc3c4ccccc4cc4ccccc34)C(=O)NCCCCC(NC(=O)NC(CCCC(=O)O)C(=O)O)C(=O)O)CC2)CCN(CC(=O)[O-])CC1.[Lu+3]` (stereo not shown) [Lu-HTK03149], in the experiment with LNCaP tumor-bearing mice, the Median survival is given as 18 days. The Ki at PSMA was 1.57 ± 0.42 nM. In the case of `O=C([O-])CN1CCN(CC(=O)[O-])CCN(CC(=O)NCC2CCC(C(=O)NC(Cc3c4ccccc4cc4ccccc34)C(=O)NCCCCC(NC(=O)NC(CCCCC(=O)O)C(=O)O)C(=O)O)CC2)CCN(CC(=O)[O-])CC1.[Ga+3]` (single isomer, unassigned) [Ga-HTK03189A], the Ki on PSMA was 550 ± 35.7 nM. `O=C([O-])CN1CCN(CC(=O)[O-])CCN(CC(=O)NCC2CCC(C(=O)NC(Cc3c4ccccc4cc4ccccc34)C(=O)NCCCCC(NC(=O)NC(CCCC(=O)O)C(=O)O)C(=O)O)CC2)CCN(CC(=O)[O-])CC1.[Ga+3]` (stereo not shown) [Ga-HTK03149]: the Ki on PSMA turned out to be 6.99 ± 0.8 nM.
